Values quoted from earlier work as cited in US8454993B2, “Controlled release pharmaceutical compositions of pregabalin” (Lupin Limited, priority 2007, dated 2013).

Conditions: in water and both basic and acidic aqueous solutions

## CC(C)C[C@H](CN)CC(=O)O [Pregabalin, (S)-(+)-3-(aminomethyl)-5-methylhexanoic acid]
  solubility: freely soluble
